The nature of the assay: Inhibition of ASM (unknown origin)-mediated KRAS mislocalization from plasma membrane.

SMILES strings stand for the structures. Counter-ions that a name gives are not always drawn.

What is called IC50 is the concentration that gives 50% inhibition. A low value points to greater potency. The molecule `CC(NCCC(c1ccccc1)c1ccccc1)c1ccccc1` (stereo unspecified) [FENDILINE HYDROCHLORIDE] showed a half-inhibitory concentration (IC50) of 5.6 µM. This lies in the single-digit micromolar range.

The record behind these values is BindingDB's records for doi:10.1016/j.ejmech.2021.113381 (University of Texas Medical Branch, 2021).
